Measurements published in patent publication US11267826B2, “Penicillin-binding protein inhibitors” (priority 2017, dated 2022).

Assays:
[1] = system: E. coli DH5a harboring IMP-18; assay: Broth microdilution MIC, engineered E. coli expressing IMP-18; type: cell-based; conditions: Escherichia coli, read-out: MIC, β-lactamase IMP
Description: (§1) To determine the ability of test compounds to potentiate the inhibition of the growth of bacterial strains, classic cell based broth microdilution MIC assays were employed. MIC assays are performed according to CLSI methods except where otherwise noted (CLSI, 2011 and CLSI, 2009). The reference strain S. aureus ATCC 29213 and the hyper-permeable E. coli 901C were used to determine the ability of the PBP compounds to inhibit bacterial growth. Briefly, cryo-preserved bacterial cultures of clinical strains are streaked for isolation on appropriate agar medium, in this case Mueller Hinton II agar. Following incubation to allow formation of colonies these plates are sealed with parafilm and stored refrigerated for up to two weeks. For preparation of assay inocula and to ensure low variability, at least 5 colonies are picked from the agar plates with an inoculating loop and aseptically transferred to a culture tube containing 3 mL of Mueller-Hinton Broth (supplemented with divalent cations to required levels based on Manufacturers' certification). The broth culture is grown for 3-5 hours at 37° C. with shaking at 200 rpm. Meanwhile, 2-fold serial dilutions of test compounds are conducted in a 96 well plate with a final volume of 75 μL per well at 2-fold the final desired concentration. After the dilution plates are set up the growing cultures are then diluted in a cuvette containing MH II broth and the optical density is measured at 600 nm. Inocula are diluted such that 75 μL of this culture in Mueller-Hinton Broth results in a starting bacterial concentration of 5×10^5 CFU/mL when added to the dilution plates. The plates are incubated 16-20 hours at 37° C. The MIC is read visually as the lowest concentration well with no bacterial growth.
(§2) To determine if test compounds were affected by various known β-lactamases, the inhibition of the growth of engineered strains of Escherichia coli harboring select single β-lactamases were tested. […]

E. coli PBP3 = biological target: T1, E. coli PBP3 (Escherichia coli, UniProt P0AD68); assay: Bocillin FL competition binding assay, PBP3; design: species or system Escherichia coli K12; conditions: 15 min pre-incubation
T1 construct: 100 μg's of total membrane protein extracts containing PBPs; endogenous in cells; host or cells: Escherichia coli K12, membrane protein fraction
Method in brief: (§3)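 E. coli K12 membrane extracts (100 µg protein) pre-incubated 15 min with compound (0.005–2,480 µg/mL) in pH 7 phosphate/350 mM NaCl, then labelled with Bocillin FL 30 min at 35°C; SDS-PAGE fluorescence (ex 450/em 520 nm), μg/mL reported. PBP1a/1b unresolved, reported combined.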

[2] = system: E. coli DH5a harboring NDM-1; assay: Broth microdilution MIC, engineered E. coli expressing NDM-1; type: cell-based; conditions: Escherichia coli, read-out: MIC, β-lactamase NDM
Description: as §1, §2

[3] = system: E. coli DH5a harboring CTX-M15; assay: Broth microdilution MIC, engineered E. coli expressing CTX-M15; type: cell-based; conditions: Escherichia coli, read-out: MIC, β-lactamase CTXM
Description: as §1, §2

E. coli PBP2 = biological target: T2, E. coli PBP2 (Escherichia coli, UniProt P0AD65); assay: Bocillin FL competition binding assay, PBP2; design: species or system Escherichia coli K12; conditions: 15 min pre-incubation
T2 construct: 100 μg's of total membrane protein extracts containing PBPs; endogenous in cells; host or cells: Escherichia coli K12, membrane protein fraction
Method in brief: as §3

[4] = system: E. coli DH5a harboring VIM-2; assay: Broth microdilution MIC, engineered E. coli expressing VIM-2; type: cell-based; conditions: Escherichia coli, read-out: MIC, β-lactamase VIM
Description: as §1, §2

[5] = system: E. coli DH5a harboring SHV-5; assay: Broth microdilution MIC, engineered E. coli expressing SHV-5; type: cell-based; conditions: Escherichia coli, read-out: MIC, β-lactamase SHV
Description: as §1, §2

[6] = system: E. coli DH5a harboring OXA-48; assay: Broth microdilution MIC, engineered E. coli expressing OXA-48; type: cell-based; conditions: Escherichia coli, read-out: MIC, β-lactamase OXA
Description: as §1, §2

S. aureus ATCC 29213 = assay: Broth microdilution MIC assay, S. aureus; type: cell-based; conditions: Staphylococcus aureus, ATCC29213; broth microdilution, 16-20 hours at 37° C.; read-out: S. aureus 29213 MIC
Method in brief: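 Growth inhibition is measured by CLSI broth microdilution. Log-phase bacteria (5×10^5 CFU/mL starting density) are incubated with 2-fold compound dilutions in cation-supplemented MH broth for 16-20 hours at 37° C, and the MIC is scored visually.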

[7] = system: E. coli DH5a harboring KPC-2; assay: microbe, parasite or virus in culture; type: cell-based; conditions: Escherichia coli, read-out: MIC, β-lactamase KPC
Description: To determine the ability of test compounds to potentiate the inhibition of the growth of bacterial strains, classic cell based broth microdilution MIC assays were employed. MIC assays are performed according to CLSI methods except where otherwise noted (CLSI, 2011 and CLSI, 2009). The reference strain S. aureus ATCC 29213 and the hyper-permeable E. coli 901C were used to determine the ability of the PBP compounds to inhibit bacterial growth. Briefly, cryo-preserved bacterial cultures of clinical strains are streaked for isolation on appropriate agar medium, in this case Mueller Hinton II agar. Following incubation to allow formation of colonies these plates are sealed with parafilm and stored refrigerated for up to two weeks. For preparation of assay inocula and to ensure low variability, at least 5 colonies are picked from the agar plates with an inoculating loop and aseptically transferred to a culture tube containing 3 mL of Mueller-Hinton Broth (supplemented with divalent cations to required levels based on Manufacturers' certification). The broth culture is grown for 3-5 hours at 37° C. with shaking at 200 rpm. […] After the dilution plates are set up the growing cultures are then diluted in a cuvette containing MH II broth and the optical density is measured at 600 nm. […] The MIC is read visually as the lowest concentration well with no bacterial growth. […]

T2 sequence (P0AD65 whole entry): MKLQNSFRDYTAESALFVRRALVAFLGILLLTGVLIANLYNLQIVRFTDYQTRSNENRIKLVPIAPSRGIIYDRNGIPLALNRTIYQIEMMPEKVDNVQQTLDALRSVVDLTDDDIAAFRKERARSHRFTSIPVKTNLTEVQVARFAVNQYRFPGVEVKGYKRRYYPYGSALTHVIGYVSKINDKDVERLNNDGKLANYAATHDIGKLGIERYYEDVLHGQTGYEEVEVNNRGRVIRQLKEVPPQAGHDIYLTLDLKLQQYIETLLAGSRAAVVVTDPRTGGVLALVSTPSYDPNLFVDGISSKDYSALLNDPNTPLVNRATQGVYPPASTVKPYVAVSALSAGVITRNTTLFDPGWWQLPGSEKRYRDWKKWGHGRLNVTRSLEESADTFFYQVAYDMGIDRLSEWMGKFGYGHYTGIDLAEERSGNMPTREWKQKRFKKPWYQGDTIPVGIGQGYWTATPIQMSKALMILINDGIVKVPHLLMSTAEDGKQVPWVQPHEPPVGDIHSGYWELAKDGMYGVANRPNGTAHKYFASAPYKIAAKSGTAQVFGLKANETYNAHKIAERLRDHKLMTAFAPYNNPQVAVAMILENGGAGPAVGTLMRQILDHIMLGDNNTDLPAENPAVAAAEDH
T1 sequence (P0AD68 1-577): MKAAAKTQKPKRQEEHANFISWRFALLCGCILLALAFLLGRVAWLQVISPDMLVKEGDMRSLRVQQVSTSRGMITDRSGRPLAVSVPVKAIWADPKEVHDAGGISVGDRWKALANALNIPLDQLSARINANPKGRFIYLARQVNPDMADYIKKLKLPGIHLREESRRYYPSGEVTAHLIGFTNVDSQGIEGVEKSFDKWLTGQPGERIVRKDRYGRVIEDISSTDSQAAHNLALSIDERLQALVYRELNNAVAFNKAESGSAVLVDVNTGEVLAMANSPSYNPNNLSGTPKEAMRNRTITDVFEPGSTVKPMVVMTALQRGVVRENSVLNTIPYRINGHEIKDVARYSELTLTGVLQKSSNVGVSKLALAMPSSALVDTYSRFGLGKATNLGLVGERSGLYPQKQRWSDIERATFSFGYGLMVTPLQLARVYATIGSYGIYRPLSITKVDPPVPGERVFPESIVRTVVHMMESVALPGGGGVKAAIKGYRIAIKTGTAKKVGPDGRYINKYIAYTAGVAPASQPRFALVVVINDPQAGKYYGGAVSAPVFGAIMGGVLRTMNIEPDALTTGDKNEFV

Structure (SMILES): Nc1nc(/C(=N/O)C(=O)N[C@H]2Cc3cccc(C(=O)O)c3OB2O)cs1 [Example 6, (R,Z)-3-(2-(2-aminothiazol-4-yl)-2-(hydroxyimino)acetamido)-2-hydroxy-3,4-dihydro-2H-benzo[e][1,2]oxaborinine-8-carboxylic Acid]
- MIC [1]: 16 µg/mL
- E. coli PBP3 Potency (E. coli PBP3): B (B represents a potency between 64 and 1000 μg/mL inclusive)
- MIC [2]: 16 µg/mL
- MIC [3]: 16 µg/mL
- E. coli PBP2 Potency (E. coli PBP2): B (B represents a potency between 64 and 1000 μg/mL inclusive)
- MIC [4]: 16 µg/mL
- MIC [5]: 16 µg/mL
- MIC [6]: 16 µg/mL
- MIC (S. aureus ATCC 29213): < 64 µg/mL
- MIC [7]: 16 µg/mL
